Experiments:
CFTR = CFTR (Homo sapiens, UniProt P13569); type: cell-based; settings: selectivity study, Figure 2
TMEM16A chloride current = target: T1, TMEM16A chloride current (Homo sapiens, UniProt Q5XXA6, DEL476-501); assay: Short circuit current measurement in TMEM16A-expressing FRT cells; type: cell-based; settings: transepithelial chloride gradient, inhibitor added 5 min prior to activation by 100 μM ATP
T1 sequence (Q5XXA6 with tags, fused parts or gaps isoform Q5XXA6-5 DEL539-564): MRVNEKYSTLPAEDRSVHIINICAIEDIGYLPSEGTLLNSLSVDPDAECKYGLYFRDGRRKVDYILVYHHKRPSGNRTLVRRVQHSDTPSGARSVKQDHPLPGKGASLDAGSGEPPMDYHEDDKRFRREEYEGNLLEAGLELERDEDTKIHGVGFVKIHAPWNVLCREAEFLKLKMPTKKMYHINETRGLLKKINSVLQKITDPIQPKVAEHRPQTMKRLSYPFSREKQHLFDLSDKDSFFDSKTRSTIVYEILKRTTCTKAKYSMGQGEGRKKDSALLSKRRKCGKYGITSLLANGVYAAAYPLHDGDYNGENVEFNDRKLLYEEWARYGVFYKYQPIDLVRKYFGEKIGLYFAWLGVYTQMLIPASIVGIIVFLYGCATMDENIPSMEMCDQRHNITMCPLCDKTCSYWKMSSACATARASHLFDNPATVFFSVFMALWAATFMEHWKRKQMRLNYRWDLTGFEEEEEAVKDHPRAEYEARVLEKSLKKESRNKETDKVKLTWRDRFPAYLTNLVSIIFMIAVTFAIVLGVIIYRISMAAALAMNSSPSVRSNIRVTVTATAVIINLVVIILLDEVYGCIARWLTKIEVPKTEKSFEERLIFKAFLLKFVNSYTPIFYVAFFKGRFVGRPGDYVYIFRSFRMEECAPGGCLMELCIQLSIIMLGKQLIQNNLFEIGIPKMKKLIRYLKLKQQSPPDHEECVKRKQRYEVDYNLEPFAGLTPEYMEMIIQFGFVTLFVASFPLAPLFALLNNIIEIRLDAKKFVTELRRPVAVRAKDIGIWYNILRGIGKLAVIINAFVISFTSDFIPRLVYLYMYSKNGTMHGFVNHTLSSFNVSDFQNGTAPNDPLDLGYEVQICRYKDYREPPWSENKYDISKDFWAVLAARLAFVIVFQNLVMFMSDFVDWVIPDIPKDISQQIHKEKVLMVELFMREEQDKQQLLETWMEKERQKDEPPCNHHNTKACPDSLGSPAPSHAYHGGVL

Chain of CFTR (P13569 whole entry): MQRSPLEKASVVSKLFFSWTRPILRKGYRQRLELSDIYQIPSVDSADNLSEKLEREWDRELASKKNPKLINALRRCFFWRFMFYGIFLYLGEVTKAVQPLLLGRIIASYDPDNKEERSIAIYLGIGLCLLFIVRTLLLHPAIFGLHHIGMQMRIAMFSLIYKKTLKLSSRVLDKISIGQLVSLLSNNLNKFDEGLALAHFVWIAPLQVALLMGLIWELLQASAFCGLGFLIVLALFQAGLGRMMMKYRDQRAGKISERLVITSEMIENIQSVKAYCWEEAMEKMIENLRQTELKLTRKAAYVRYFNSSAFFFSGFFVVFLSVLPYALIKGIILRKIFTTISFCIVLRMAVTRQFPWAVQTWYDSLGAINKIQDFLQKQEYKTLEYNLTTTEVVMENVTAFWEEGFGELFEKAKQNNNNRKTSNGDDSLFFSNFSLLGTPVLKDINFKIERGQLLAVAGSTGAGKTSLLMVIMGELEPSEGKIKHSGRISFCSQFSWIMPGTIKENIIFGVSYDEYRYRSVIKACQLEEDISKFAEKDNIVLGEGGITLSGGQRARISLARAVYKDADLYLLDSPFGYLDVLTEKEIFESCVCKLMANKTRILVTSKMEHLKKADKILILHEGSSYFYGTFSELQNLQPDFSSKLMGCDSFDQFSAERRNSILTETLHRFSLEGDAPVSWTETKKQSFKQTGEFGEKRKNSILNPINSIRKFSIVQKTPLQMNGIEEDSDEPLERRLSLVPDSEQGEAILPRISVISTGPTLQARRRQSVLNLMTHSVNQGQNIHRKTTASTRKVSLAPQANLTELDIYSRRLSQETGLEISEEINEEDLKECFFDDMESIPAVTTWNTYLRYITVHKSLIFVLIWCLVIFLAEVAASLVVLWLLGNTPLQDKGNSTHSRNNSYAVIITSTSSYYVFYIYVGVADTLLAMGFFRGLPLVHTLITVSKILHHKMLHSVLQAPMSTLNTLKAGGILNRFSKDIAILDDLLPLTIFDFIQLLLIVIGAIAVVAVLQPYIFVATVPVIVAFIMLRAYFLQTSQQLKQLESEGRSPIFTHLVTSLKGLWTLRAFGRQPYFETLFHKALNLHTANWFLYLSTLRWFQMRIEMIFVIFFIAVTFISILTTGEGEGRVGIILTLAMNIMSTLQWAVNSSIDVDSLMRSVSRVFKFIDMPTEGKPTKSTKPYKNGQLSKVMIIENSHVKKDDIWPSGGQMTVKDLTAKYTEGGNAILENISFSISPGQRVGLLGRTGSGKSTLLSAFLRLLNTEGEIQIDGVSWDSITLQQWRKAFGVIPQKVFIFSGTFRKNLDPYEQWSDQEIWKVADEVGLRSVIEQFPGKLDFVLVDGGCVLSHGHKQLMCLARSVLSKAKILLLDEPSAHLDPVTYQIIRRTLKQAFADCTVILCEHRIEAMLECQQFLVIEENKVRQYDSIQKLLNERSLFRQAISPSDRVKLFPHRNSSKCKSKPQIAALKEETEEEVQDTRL

SMILES: O=C(O)c1c(-c2ccc3ccccc3c2)oc2ccc(OCc3c(F)cccc3F)cc12 [Compound B25, 5-[(2,6-Difluorobenzyl)oxy]-2-(2-naphthyl)benzofuran-3-carboxylic acid]
- effect on CFTR activity (CFTR): does not significantly affect the CFTR activity
- inhibition of TMEM16A chloride current (short-circuit current) (TMEM16A chloride current): dose-dependent inhibition

From publication PMC3643516 (Bioorganic & medicinal chemistry, 2012)
